Assay: SERS monitoring of boronic acid derivative binding to diol-modified SERS substrate (flow cell)
From the text: During the experiments, one type of gold nanostructured SERS substrates were applied. Hereto, a bare SiO2 substrate was cleaned prior to the deposition of polystyrene beads with a diameter of 100 nm (obtained from Thermo Fisher Scientific). Due to electrostatic forces, the nanoparticles form a closed-packed layer on the SiO2 substrate. Then, the substrate was carefully rinsed with H2O. Afterwards, a thin layer of Au (˜50 nm) was deposited onto the polystyrene-coated SiO2 substrate using sputter deposition. The as such obtained SERS substrates were cleaned with an aceton-H2O mixture and dried with a stream of N2. Additionally, the samples were cleaned using UV-O3 treatment for 15 min prior to the experiments.
The SERS substrates were immerged into a solution containing 1 mM thiolated glucose for 3 days at room temperature in the dark (i.e. 1-Thio-β-D-glucose sodium salt dihydrate obtained from Toronto Research Chemicals). […]
The SERS substrates functionalized with the thiolated glucose molecules were mounted into a home-made flow cell connected to a peristaltic pump system. […] The corresponding Raman signal was monitored using a Raman setup of LabRAM. […] FIG. 5 represents the SERS intensity monitored at 1075±1 cm^−1 using a time interval of 25 s. […] The response was also measured in real time as represented in FIG. 8. […]

In the case of `OB(O)c1ccccc1` [PBA, Phenyl boronic acid], the “SERS intensity at 1075±1 cm^−1 (PBA binding to immobilized thiolated glucose)” value (1 mM PBA in carbonate buffer, 785 nm, 0.5 mW, 25 s interval) is reported as “an increase of the signal is obtained over time” and the “SERS response of PBA interacting with immobilized thiolated glucose in presence of human serum albumin” value (human serum albumin 2000 mg/dl in carbonate mixed 1/1 with 1 mM PBA) is reported as “a clear SERS response”.

Reference: US9921163B2, “Method and device for detecting analytes” (IMEC VZW, priority 2013, dated 2018)
